Assay results published in US20240238292A1, “TREATMENT OF INFECTIONS IN AND AROUND THE EYE” (UNIVERSITY OF MIAMI, priority 2021, published 2024).

Assays:
Demodex [1] = experiment: Ex vivo treatment of Demodex on epilated lashes, kill time; details: lashes immersed in 1-2 drops, time to cessation of all movement for minimum 60 seconds, examined every four hours
Description: Epilated lashes from an individual with confirmed Demodex infection were mounted onto six slides and covered with a coverslip. The lashes were then immersed in 1-2 drops of treatment solution (50 mg/mL 5-FU, 5 mg/mL 5-FU, or balanced salt solution as a control (2 slides each)). The slides were examined under a microscope (at magnifications ranging from 20-40×) every four hours. The kill time was defined as the elapsed time between the addition of test solution and all cessation of movement of the body, legs, mouth and pedipalps for a minimum of 60 seconds. The kill time for Demodex-infested lashes immersed in 5 mg/mL of 5-FU, 50 mg/mL of 5-FU, and control were 32 hours, 44 hours, and 72 hours, respectively.

Demodex [2] = experiment: Clinical treatment of Demodex blepharitis with topical 5-FU 1%; format: in vivo, human
Description: The diagnosis of ocular demodicosis was based on clinical examination and confirmed by lash sampling and identification of microscopic mites. Lashes with cylindrical dandruff (CD), (scales that form clear cuffs collaring the lash root) were specifically selected for epilation. External slit lamp photos of both eyes of each individual were taken prior to and after initiation of 5-FU treatment. […] Patients were treated with 5-FU in a cyclical fashion (one week of topical 5-FU 1% application 4 times per day in the affected eye(s) followed by a 3-week holiday comprised one cycle).

Demodex [3] = experiment: Clinical treatment of Demodex infestation with topical mitomycin C; format: in vivo, human; details: patient with conjunctival melanoma and heavy Demodex infestation, after 2 cycles

Row | Structure (SMILES) | kill time (Demodex [1]; 5 mg/mL 5-FU) [h] | kill time (Demodex [1]; 50 mg/mL 5-FU) [h] | CDs (cylindrical dandruff) and inflammation (Demodex [2]; one individual with bilateral 5-FU treatment, both eyes compared to pre-treatment) | collarettes and lid inflammation by clinical examination (Demodex [2]; topical 5-FU 1% 4 times per day one week, 3-week holiday per cycle, at least 2 cycles, treated eyes compared to untreated eye) | lash collarettes (Demodex [3])
1 | O=c1[nH]cc(F)c(=O)[nH]1 [5-FU, 5-fluorouracil] | 32 | 44 | reduction in CDs and inflammation | reduction in collarettes and lid inflammation | –
2 | CO[C@@]12[C@H](COC(N)=O)C3=C(C(=O)C(C)=C(N)C3=O)N1C[C@@H]1N[C@@H]12 [mitomycin C] | – | – | – | – | dramatic reduction in lash collarettes
